# Laboratory results published in PubChem BioAssay AID1963829 (Molecular Pharmacology Branch, DTP, NCI, 2024).
# System: 935938-334-R-J1-PDC complex spheroid viability
# Assay: Anticancer human tumor 935938-334-R-J1-PDC patient-derived small intestine adenocarcinoma cell line growth inhibition [POLQ]
# Conditions: second compound 3.16 µM; first compound 0.1 µM; active compounds read low
# Summary of the method: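 Complex spheroid viability model combining PDC tumour cells with endothelial (HUVEC) and MSC stromal cells. Novobiocin, ART-558 or RP6685 were tested singly and in combination with standard and investigational anticancer drugs. Each was titrated in half-log steps from near clinical Cmax, or from 10 microM where Cmax was unknown.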
# 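Note: spheroids exposed to drugs for seven days before viability read; 100% = DMSO vehicle control wells.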
row,Compound,"viability, T/C"
1,O=c1[nH]cc(F)c(=O)[nH]1 + Cc1cccc(N(C)C(=O)C2C(O)CCN2c2nc(C)cc(C(F)(F)F)c2C#N)c1,126%
2,CC1COCCN1c1cc(C2(S(C)(=N)=O)CC2)nc(-c2ccnc3[nH]ccc23)n1 (configuration not stated) + Nc1ccc(C#CCN(C(=O)Cc2ncc(C(F)(F)F)cc2C(F)(F)F)c2ccc(F)cc2)nn1,93.2%
3,CCCS(=O)(=O)Nc1ccc(F)c(C(=O)c2c[nH]c3ncc(-c4ccc(Cl)cc4)cc23)c1F + Cc1cccc(N(C)C(=O)C2C(O)CCN2c2nc(C)cc(C(F)(F)F)c2C#N)c1,108%
4,COc1ccc([C@@H](O)c2cc(-c3ncnc4cc(N5CCOCC5)ccc34)c(F)cc2Cl)nn1 + Cc1cccc(N(C)C(=O)C2C(O)CCN2c2nc(C)cc(C(F)(F)F)c2C#N)c1,85%
5,CC(C)n1c(=O)n(C)c2cnc3cc(F)c(-c4ccc(OCCCN5CCCCC5)nc4)cc3c21 + Cc1cccc(N(C)C(=O)C2C(O)CCN2c2nc(C)cc(C(F)(F)F)c2C#N)c1,93.7%
6,COc1cccc(OCCCN)c1-c1cc(Nc2cnc(C#N)cn2)n[nH]1 + Cc1cccc(N(C)C(=O)C2C(O)CCN2c2nc(C)cc(C(F)(F)F)c2C#N)c1,15.7%

# Same assay, conditions: second compound 3.16 µM; first compound 0.316 µM; active compounds read low
row,Compound,"viability, T/C"
1,O=C(Nc1ccc(O)c(NS(=O)(=O)c2ccc(F)cc2)c1)c1ccc(-c2ccccc2)cc1 + COC1C(OC(N)=O)C(O)C(Oc2ccc3c(O)c(NC(=O)c4ccc(O)c(CC=C(C)C)c4)c(=O)oc3c2C)OC1(C)C,85.2%
2,O=c1[nH]cc(F)c(=O)[nH]1 + Cc1cccc(N(C)C(=O)C2C(O)CCN2c2nc(C)cc(C(F)(F)F)c2C#N)c1,97.5%
3,CC1COCCN1c1cc(C2(S(C)(=N)=O)CC2)nc(-c2ccnc3[nH]ccc23)n1 (configuration not stated) + Nc1ccc(C#CCN(C(=O)Cc2ncc(C(F)(F)F)cc2C(F)(F)F)c2ccc(F)cc2)nn1,108%
4,CCCS(=O)(=O)Nc1ccc(F)c(C(=O)c2c[nH]c3ncc(-c4ccc(Cl)cc4)cc23)c1F + Cc1cccc(N(C)C(=O)C2C(O)CCN2c2nc(C)cc(C(F)(F)F)c2C#N)c1,123%
5,COc1ccc([C@@H](O)c2cc(-c3ncnc4cc(N5CCOCC5)ccc34)c(F)cc2Cl)nn1 + Cc1cccc(N(C)C(=O)C2C(O)CCN2c2nc(C)cc(C(F)(F)F)c2C#N)c1,81.8%
6,CC(C)n1c(=O)n(C)c2cnc3cc(F)c(-c4ccc(OCCCN5CCCCC5)nc4)cc3c21 + Cc1cccc(N(C)C(=O)C2C(O)CCN2c2nc(C)cc(C(F)(F)F)c2C#N)c1,100%
7,COc1cccc(OCCCN)c1-c1cc(Nc2cnc(C#N)cn2)n[nH]1 + Cc1cccc(N(C)C(=O)C2C(O)CCN2c2nc(C)cc(C(F)(F)F)c2C#N)c1,8.96%

# Same assay, conditions: second compound 3.16 µM; first compound 1 µM; active compounds read low
row,Compound,"viability, T/C"
1,O=C(Nc1ccc(O)c(NS(=O)(=O)c2ccc(F)cc2)c1)c1ccc(-c2ccccc2)cc1 + COC1C(OC(N)=O)C(O)C(Oc2ccc3c(O)c(NC(=O)c4ccc(O)c(CC=C(C)C)c4)c(=O)oc3c2C)OC1(C)C,109%
2,O=c1[nH]cc(F)c(=O)[nH]1 + Cc1cccc(N(C)C(=O)C2C(O)CCN2c2nc(C)cc(C(F)(F)F)c2C#N)c1,78.3%
3,CC1COCCN1c1cc(C2(S(C)(=N)=O)CC2)nc(-c2ccnc3[nH]ccc23)n1 (configuration not stated) + Nc1ccc(C#CCN(C(=O)Cc2ncc(C(F)(F)F)cc2C(F)(F)F)c2ccc(F)cc2)nn1,70.5%
4,CCCS(=O)(=O)Nc1ccc(F)c(C(=O)c2c[nH]c3ncc(-c4ccc(Cl)cc4)cc23)c1F + Cc1cccc(N(C)C(=O)C2C(O)CCN2c2nc(C)cc(C(F)(F)F)c2C#N)c1,151%
5,COc1ccc([C@@H](O)c2cc(-c3ncnc4cc(N5CCOCC5)ccc34)c(F)cc2Cl)nn1 + Cc1cccc(N(C)C(=O)C2C(O)CCN2c2nc(C)cc(C(F)(F)F)c2C#N)c1,67.2%
6,CC(C)n1c(=O)n(C)c2cnc3cc(F)c(-c4ccc(OCCCN5CCCCC5)nc4)cc3c21 + Cc1cccc(N(C)C(=O)C2C(O)CCN2c2nc(C)cc(C(F)(F)F)c2C#N)c1,98.1%
7,COc1cccc(OCCCN)c1-c1cc(Nc2cnc(C#N)cn2)n[nH]1 + Cc1cccc(N(C)C(=O)C2C(O)CCN2c2nc(C)cc(C(F)(F)F)c2C#N)c1,11.1%

# Same assay, conditions: second compound 3.16 µM; first compound 3.16 µM; active compounds read low
row,Compound,"viability, T/C"
1,O=C(Nc1ccc(O)c(NS(=O)(=O)c2ccc(F)cc2)c1)c1ccc(-c2ccccc2)cc1 + COC1C(OC(N)=O)C(O)C(Oc2ccc3c(O)c(NC(=O)c4ccc(O)c(CC=C(C)C)c4)c(=O)oc3c2C)OC1(C)C,87.6%
2,O=c1[nH]cc(F)c(=O)[nH]1 + Cc1cccc(N(C)C(=O)C2C(O)CCN2c2nc(C)cc(C(F)(F)F)c2C#N)c1,65.3%
3,CC1COCCN1c1cc(C2(S(C)(=N)=O)CC2)nc(-c2ccnc3[nH]ccc23)n1 (configuration not stated) + Nc1ccc(C#CCN(C(=O)Cc2ncc(C(F)(F)F)cc2C(F)(F)F)c2ccc(F)cc2)nn1,34.1%
4,CCCS(=O)(=O)Nc1ccc(F)c(C(=O)c2c[nH]c3ncc(-c4ccc(Cl)cc4)cc23)c1F + Cc1cccc(N(C)C(=O)C2C(O)CCN2c2nc(C)cc(C(F)(F)F)c2C#N)c1,113%
5,COc1ccc([C@@H](O)c2cc(-c3ncnc4cc(N5CCOCC5)ccc34)c(F)cc2Cl)nn1 + Cc1cccc(N(C)C(=O)C2C(O)CCN2c2nc(C)cc(C(F)(F)F)c2C#N)c1,55%
6,CC(C)n1c(=O)n(C)c2cnc3cc(F)c(-c4ccc(OCCCN5CCCCC5)nc4)cc3c21 + Cc1cccc(N(C)C(=O)C2C(O)CCN2c2nc(C)cc(C(F)(F)F)c2C#N)c1,112%

# Same assay, conditions: second compound 3.16 µM; first compound 10 µM; active compounds read low
row,Compound,"viability, T/C"
1,O=C(Nc1ccc(O)c(NS(=O)(=O)c2ccc(F)cc2)c1)c1ccc(-c2ccccc2)cc1 + COC1C(OC(N)=O)C(O)C(Oc2ccc3c(O)c(NC(=O)c4ccc(O)c(CC=C(C)C)c4)c(=O)oc3c2C)OC1(C)C,75.2%
2,O=c1[nH]cc(F)c(=O)[nH]1 + Cc1cccc(N(C)C(=O)C2C(O)CCN2c2nc(C)cc(C(F)(F)F)c2C#N)c1,67.2%
3,CC1COCCN1c1cc(C2(S(C)(=N)=O)CC2)nc(-c2ccnc3[nH]ccc23)n1 (configuration not stated) + Nc1ccc(C#CCN(C(=O)Cc2ncc(C(F)(F)F)cc2C(F)(F)F)c2ccc(F)cc2)nn1,17.9%
4,CCCS(=O)(=O)Nc1ccc(F)c(C(=O)c2c[nH]c3ncc(-c4ccc(Cl)cc4)cc23)c1F + Cc1cccc(N(C)C(=O)C2C(O)CCN2c2nc(C)cc(C(F)(F)F)c2C#N)c1,51.4%
5,COc1ccc([C@@H](O)c2cc(-c3ncnc4cc(N5CCOCC5)ccc34)c(F)cc2Cl)nn1 + Cc1cccc(N(C)C(=O)C2C(O)CCN2c2nc(C)cc(C(F)(F)F)c2C#N)c1,33.1%
6,CC(C)n1c(=O)n(C)c2cnc3cc(F)c(-c4ccc(OCCCN5CCCCC5)nc4)cc3c21 + Cc1cccc(N(C)C(=O)C2C(O)CCN2c2nc(C)cc(C(F)(F)F)c2C#N)c1,89.5%

# Same assay, conditions: second compound 10 µM; first compound 0.00316 µM; active compounds read low
row,Compound,"viability, T/C"
1,COc1cccc(OCCCN)c1-c1cc(Nc2cnc(C#N)cn2)n[nH]1 + Cc1cccc(N(C)C(=O)C2C(O)CCN2c2nc(C)cc(C(F)(F)F)c2C#N)c1,96.5%

# Same assay, conditions: second compound 10 µM; first compound 0.01 µM; active compounds read low
row,Compound,"viability, T/C"
1,COc1cccc(OCCCN)c1-c1cc(Nc2cnc(C#N)cn2)n[nH]1 + Cc1cccc(N(C)C(=O)C2C(O)CCN2c2nc(C)cc(C(F)(F)F)c2C#N)c1,94.8%

# Same assay, conditions: second compound 10 µM; first compound 0.0316 µM; active compounds read low
row,Compound,"viability, T/C"
1,O=C(Nc1ccc(O)c(NS(=O)(=O)c2ccc(F)cc2)c1)c1ccc(-c2ccccc2)cc1 + COC1C(OC(N)=O)C(O)C(Oc2ccc3c(O)c(NC(=O)c4ccc(O)c(CC=C(C)C)c4)c(=O)oc3c2C)OC1(C)C,145%
2,O=c1[nH]cc(F)c(=O)[nH]1 + Cc1cccc(N(C)C(=O)C2C(O)CCN2c2nc(C)cc(C(F)(F)F)c2C#N)c1,99.1%
3,CC1COCCN1c1cc(C2(S(C)(=N)=O)CC2)nc(-c2ccnc3[nH]ccc23)n1 (configuration not stated) + Nc1ccc(C#CCN(C(=O)Cc2ncc(C(F)(F)F)cc2C(F)(F)F)c2ccc(F)cc2)nn1,106%
